From ChEMBL document CHEMBL1275440, “In vitro activity of telavancin against resistant gram-positive bacteria” (2008)
In brackets after ≈: the same amount, converted by molar mass. Activity calls are given as the source filed them. The calls are words filed in the database; no cut-off is given here.

Key:
[1] = test system: Streptococcus pneumoniae; experiment: Antibacterial activity against multidrug resistant Streptococcus pneumoniae MED 1090 assessed as bacterial count at 0.06 ug/ml after 24 hrs by time-kill assay; assay type: functional
[2] = test system: Staphylococcus epidermidis; experiment: Antibacterial activity against methicillin resistant Staphylococcus epidermidis ATCC 35984 assessed as bacterial count at 8 ug/ml after 24 hrs by time-kill assay; assay type: functional
[3] = test system: Enterococcus faecalis; experiment: Antibacterial activity against Enterococcus faecalis ATCC 51575 assessed as bacterial count at 4 ug/ml after 24 hrs by time-kill assay; assay type: functional
[4] = test system: Staphylococcus aureus; experiment: Antibacterial activity against methicillin resistant Staphylococcus aureus MED 2028 osteomyelitis isolate assessed as bacterial count at 16 ug/ml after 4 hrs by time-kill assay; assay type: functional
[5] = test system: Streptococcus agalactiae; experiment: Antibacterial activity against Streptococcus agalactiae MED 2038 assessed as bacterial count at 0.5 ug/ml after 24 hrs by time-kill assay; assay type: functional
[6] = test system: Staphylococcus aureus; experiment: Antibacterial activity against methicillin resistant Staphylococcus aureus MED 2028 osteomyelitis isolate assessed as bacterial count at 1 ug/ml after 4 hrs by time-kill assay; assay type: functional
[7] = test system: Streptococcus pneumoniae; experiment: Antibacterial activity against multidrug resistant Streptococcus pneumoniae MED 1090 assessed as bacterial count at […] after 8 hrs by time-kill assay; assay type: functional
[8] = test system: Streptococcus mitis; experiment: Antibacterial activity against Streptococcus mitis clinical isolate by broth microdilution method; assay type: functional
[9] = test system: Streptococcus pyogenes; experiment: Antibacterial activity against Streptococcus pyogenes MED 2040 assessed as bacterial count at 2 ug/ml after 8 hrs by time-kill assay; assay type: functional
[10] = test system: Streptococcus pyogenes; experiment: Antibacterial activity against Streptococcus pyogenes MED 2040 assessed as bacterial count at […] after 2 hrs by time-kill assay; assay type: functional
[11] = test system: Streptococcus agalactiae; experiment: Antibacterial activity against Streptococcus agalactiae MED 2038 assessed as bacterial count at 0.5 ug/ml after 8 hrs by time-kill assay; assay type: functional
[12] = test system: Enterococcus faecalis; experiment: Antibacterial activity against Enterococcus faecalis ATCC 51575 assessed as bacterial count at 4 ug/ml after 2 hrs by time-kill assay; assay type: functional
[13] = test system: Staphylococcus epidermidis; experiment: Antibacterial activity against methicillin resistant Staphylococcus epidermidis ATCC 35984 assessed as bacterial count at 4 ug/ml after 8 hrs by time-kill assay; assay type: functional
[14] = test system: Staphylococcus capitis; experiment: Antibacterial activity against methicillin resistant coagulase-negative Staphylococcus capitis clinical isolate by broth microdilution method; assay type: functional
[15] = test system: Staphylococcus aureus; experiment: Antibacterial activity against methicillin resistant Staphylococcus aureus MED 2028 osteomyelitis isolate assessed as bacterial count at 2 ug/ml after 24 hrs by time-kill assay; assay type: functional
[16] = test system: Enterococcus faecalis
[17] = test system: Streptococcus oralis; experiment: Antibacterial activity against Streptococcus oralis clinical isolate by broth microdilution method; assay type: functional
[18] = test system: Streptococcus pyogenes; experiment: Antibacterial activity against Streptococcus pyogenes MED 2040 assessed as bacterial count at […] after 24 hrs by time-kill assay; assay type: functional
[19] = test system: Staphylococcus aureus; experiment: Antibacterial activity against methicillin resistant Staphylococcus aureus MED 2028 osteomyelitis isolate assessed as bacterial count at 16 ug/ml after 24 hr by time-kill assay; assay type: functional
[20] = test system: Streptococcus pneumoniae; experiment: Antibacterial activity against multidrug resistant Streptococcus pneumoniae MED 1090 assessed as bacterial count at 0.06 ug/ml after 2 hrs by time-kill assay; assay type: functional
[21] = test system: Staphylococcus epidermidis; experiment: Antibacterial activity against methicillin resistant Staphylococcus epidermidis ATCC 35984 assessed as bacterial count at 2 ug/ml after 8 hrs by time-kill assay; assay type: functional
[22] = test system: Streptococcus agalactiae; experiment: Antibacterial activity against Streptococcus agalactiae MED 2038 assessed as bacterial count at 2 ug/ml after 8 hrs by time-kill assay; assay type: functional
[23] = test system: Streptococcus pneumoniae; experiment: Antibacterial activity against multidrug resistant Streptococcus pneumoniae MED 1090 assessed as bacterial count at 0.03 ug/ml after 8 hrs by time-kill assay; assay type: functional
[24] = test system: Staphylococcus epidermidis; experiment: Antibacterial activity against methicillin resistant Staphylococcus epidermidis ATCC 35984 assessed as bacterial count at 16 ug/ml after 2 hrs by time-kill assay; assay type: functional
[25] = test system: Streptococcus pneumoniae; experiment: Antibacterial activity against multidrug resistant Streptococcus pneumoniae MED 1090 by broth microdilution method; assay type: functional
[26] = test system: Enterococcus faecalis; experiment: Antibacterial activity against Enterococcus faecalis ATCC 51575 assessed as bacterial count at 8 ug/ml after 8 hrs by time-kill assay; assay type: functional
[27] = test system: Enterococcus faecalis; experiment: Antibacterial activity against Enterococcus faecalis ATCC 51575 assessed as bacterial count at 2 ug/ml after 8 hrs by time-kill assay; assay type: functional
[28] = test system: Staphylococcus aureus; experiment: Antibacterial activity against methicillin resistant Staphylococcus aureus MED 1805 bloodstream isolate assessed as bacterial count at 16 ug/ml after 4 hrs by time-kill assay; assay type: functional
[29] = test system: Streptococcus agalactiae; experiment: Antibacterial activity against Streptococcus agalactiae MED 2038 assessed as bacterial count at […] after 4 hrs by time-kill assay; assay type: functional
[30] = test system: Staphylococcus aureus; experiment: Antibacterial activity against methicillin resistant Staphylococcus aureus clinical isolate assessed as susceptibility level by broth microdilution method; assay type: functional
[31] = test system: Streptococcus pneumoniae; experiment: Antibacterial activity against penicillin resistant Streptococcus pneumoniae clinical isolate by broth microdilution method; assay type: functional
[32] = test system: Enterococcus faecium; experiment: Antibacterial activity against vancomycin resistant Enterococcus faecium VanB clinical isolate by broth microdilution method; assay type: functional
[33] = test system: Streptococcus pyogenes; experiment: Antibacterial activity against Streptococcus pyogenes MED 2040 by broth microdilution method; assay type: functional
[34] = test system: Staphylococcus aureus; experiment: Antibacterial activity against methicillin resistant Staphylococcus aureus MED 1805 bloodstream isolate assessed as bacterial count at 2 ug/ml after 4 hrs by time-kill assay; assay type: functional
[35] = test system: Staphylococcus epidermidis; experiment: Antibacterial activity against methicillin resistant Staphylococcus epidermidis ATCC 35984 assessed as bacterial count at 8 ug/ml after 8 hrs by time-kill assay; assay type: functional
[36] = test system: Streptococcus pneumoniae; experiment: Antibacterial activity against multidrug resistant Streptococcus pneumoniae MED 1090 assessed as bacterial count at 2 ug/ml after 24 hrs by time-kill assay; assay type: functional
[37] = test system: Staphylococcus aureus; experiment: Antibacterial activity against methicillin resistant Staphylococcus aureus MED 2028 osteomyelitis isolate assessed as bacterial count at 4 ug/ml after 8 hrs by time-kill assay; assay type: functional
[38] = test system: Staphylococcus aureus; experiment: Antibacterial activity against methicillin resistant Staphylococcus aureus MED 2028 osteomyelitis isolate assessed as bacterial count at 8 ug/ml after 2 hrs by time-kill assay; assay type: functional
[39] = test system: Streptococcus pneumoniae; experiment: Antibacterial activity against multidrug resistant Streptococcus pneumoniae MED 1090 assessed as bacterial count at 8 ug/ml after 24 hrs by time-kill assay; assay type: functional
[40] = test system: Streptococcus pneumoniae; experiment: Antibacterial activity against multidrug resistant Streptococcus pneumoniae MED 1090 assessed as bacterial count at 0.03 ug/ml after 2 hrs by time-kill assay; assay type: functional
[41] = test system: Streptococcus pneumoniae; experiment: Antibacterial activity against multidrug resistant Streptococcus pneumoniae MED 1090 assessed as bacterial count at […] after 4 hrs by time-kill assay; assay type: functional
[42] = test system: Staphylococcus epidermidis; experiment: Antibacterial activity against methicillin resistant Staphylococcus epidermidis ATCC 35984 assessed as bacterial count at 8 ug/ml after 2 hrs by time-kill assay; assay type: functional
[43] = test system: Streptococcus pyogenes; experiment: Antibacterial activity against Streptococcus pyogenes MED 2040 assessed as bacterial count at 0.5 ug/ml after 8 hrs by time-kill assay; assay type: functional

## CCCCCCCCCCNCCN[C@@]1(C)C[C@H](O[C@H]2[C@H](Oc3c4cc5cc3Oc3ccc(cc3Cl)[C@@H](O)[C@@H](NC(=O)[C@@H](CC(C)C)NC)C(=O)N[C@@H](CC(N)=O)C(=O)N[C@H]5C(=O)N[C@H]3C(=O)N[C@H](C(=O)N[C@H](C(=O)O)c5cc(O)c(CNCP(=O)(O)O)c(O)c5-c5cc3ccc5O)[C@H](O)c3ccc(c(Cl)c3)O4)O[C@H](CO)[C@@H](O)[C@@H]2O)O[C@@H](C)[C@H]1O [TELAVANCIN]
[1]
  log10CFU/ml: 3.4
[2]
  log10CFU/ml: 3.3
[3]
  log10CFU/ml: 1.2
[4]
  log10CFU/ml: 0.8
[5]
  log10CFU/ml: 3.6
[6]
  log10CFU/ml: 1.3
[7]
  log10CFU/ml: 3.3
[8]
  MIC: 0.015 µg/mL (≈ 0.00854 µM)
  MIC50: inactive
  MIC90: inactive
[9]
  log10CFU/ml: 3.1
[10]
  log10CFU/ml: 0.7
[11]
  log10CFU/ml: 1.6
[12]
  log10CFU/ml: 0.5
[13]
  log10CFU/ml: 3.2
[14]
  MIC50: 0.5 µg/mL (≈ 0.285 µM)
  MIC90: 1 µg/mL (≈ 0.57 µM)
[15]
  log10CFU/ml: 3.4
[16]
  MIC50: inactive
  MIC90: inactive
[17]
  MIC: 0.015 µg/mL (≈ 0.00854 µM)
  MIC50: inactive
  MIC90: inactive
[18]
  log10CFU/ml: 2.2
[19]
  log10CFU/ml: 3.4
[20]
  log10CFU/ml: 1
[21]
  log10CFU/ml: 0.7
[22]
  log10CFU/ml: 1
[23]
  log10CFU/ml: 3.4
[24]
  log10CFU/ml: 0.5
[25]
  MIC: 0.015 µg/mL (≈ 0.00854 µM)
[26]
  log10CFU/ml: 0.5
[27]
  log10CFU/ml: 0.6
[28]
  log10CFU/ml: 1.6
[29]
  log10CFU/ml: 0.9
[30]
  Activity: 100%
[31]
  MIC50: 0.015 µg/mL (≈ 0.00854 µM)
  MIC90: 0.03 µg/mL (≈ 0.0171 µM)
[32]
  MIC50: 0.5 µg/mL (≈ 0.285 µM)
  MIC90: 2 µg/mL (≈ 1.14 µM)
[33]
  MIC: 0.06 µg/mL (≈ 0.0342 µM)
[34]
  log10CFU/ml: 2.8
[35]
  log10CFU/ml: 3.3
[36]
  log10CFU/ml: 3.4
[37]
  log10CFU/ml: 3.4
[38]
  log10CFU/ml: 0.4
[39]
  log10CFU/ml: 3.4
[40]
  log10CFU/ml: 1.1
[41]
  log10CFU/ml: 1.9
[42]
  log10CFU/ml: 0.5
[43]
  log10CFU/ml: 2.3
